One compound from patent US11185544B2, “Formulations of 4-methyl-5-(pyrazin-2-yl)-3H-l,2-dithiole-3-thione, taste-modified formulations, and methods of making and using same” (ST IP Holding AG, priority 2016, dated 2021) can be followed below.

The test system of assay [1] is reactive oxygen species (ROS) in HGEPp cells. The following applies: H2O2-treated cells, 0.3 mM for 4 h.
Excerpt: 2. measure the effect of recrystallized oltipraz amd formulated oltipraz on hydroxyl, peroxyl and other reactive oxygen species within HGEPp cells, using Cell Biolabs' OxiSelect™ Intracellular ROS Assay Kit. This assay employs the cell-permeable fluorogenic probe 2′,7′-dichlorodihydrofluorescein diacetate (DCFH-DA) which diffuses into cells and is deacetylated by cellular esterases to a nonfluorescent DCFH which is then rapidly oxidized to highly fluorescent 2′,7′-dichlorodihydrofluorescein (DCF) by ROS.
Pooled primary HGEPps were propagated in CnT-Prime epithelial culture medium provided by CellnTec on 100 mm petri dishes coated with 30 mg/ml Type I rat tail collagen (BD Biosciences) diluted in Dulbecco's phosphate-buffered saline (DPBS). […] The cells were harvested when they reached 70-90% confluency as observed by light microscopy. For routine cultivation, the medium was changed every 3 days. […]
Oxidative Stress Measurement ROS Assay (OxiSelect Kit) • 1. […] Once the HGEPp cells were cultured and ready on a microplate, the media was removed from all the wells and discarded. […] Fluorescence was read on a Fluorescence Plate Reader after 1 hour. […] Transferred 150 μL of the mixture to a fresh 24-well plate for fluorescence measurements at 530 nm. […]
Intracellular ROS was measured using a Spectramax M3 microplate reader.
In assay [2] the test system is primary human gingival epithelial cells (HGEPp). The experiment in a line: cells. The following applies: Epithelial cell, 4 h, read-out: IC50 of H2O2 in HGEPp cells.
Description: Pooled primary HGEPps were propagated in CnT-Prime epithelial culture medium provided by CellnTec on 100 mm petri dishes coated with 30 mg/ml Type I rat tail collagen (BD Biosciences) diluted in Dulbecco's phosphate-buffered saline (DPBS). […] The cells were harvested when they reached 70-90% confluency as observed by light microscopy. For routine cultivation, the medium was changed every 3 days. For both the cell viability and ROS assays, the cells from passages 3-7 were seeded at 5×0 3, 2.5×10 4, 5×0 4 cells/cm 2 density to grow cell monolayers in 24-well flat-bottomed tissue culture plates and acclimated overnight at 37° C. […]
Cell Survival Assay (TACS MTT Kit) • 1. Plate cell concentration was selected to be 6.25×10^5/ml to yield an OD absorbance within the linear portion of the control curve. • 2. Once the HGEPp cells were cultured and ready on the microplate, the media was removed from all the wells and discarded. […] Removed the plate cover and measured the absorbance of the wells, including the blanks at 570 nm. • 8. Determined the average values from triplicate readings after subtracting the average value for the blanks.
HGEPp cells were exposed to different concentrations of H2O2 for 4 h to examine H2O2-induced oxidative stress. The cells were exposed to 0-0.6 mM H2O2 for 4 h and cell viability was evaluated using the TACS MTT Cell Proliferation Assay Kit. […]

Broadly, the IC50 is the midpoint of a concentration-inhibition curve. Consider `OO` [Sample H2O2, hydrogen peroxide], for which the “ROS levels compared to normal control cells (100%)” value in assay [1] came to 128%. Further, the IC50 in assay [2] amounted to 300 µM.
